Laboratory results: paper PMC6439305 (iScience, 2019)

Molecular target: MOR-Venus (mu opioid receptor fused to Venus-YFP) (Mus musculus, UniProt P42866)
Experiment: Galphai2/Ggamma2 BRET2 dissociation assay, HEK293
Format: cell-based
Settings: agonist, 10 min stimulation

Sequence of MOR-Venus (mu opioid receptor fused to Venus-YFP) (P42866 whole entry, the tested form may be a part): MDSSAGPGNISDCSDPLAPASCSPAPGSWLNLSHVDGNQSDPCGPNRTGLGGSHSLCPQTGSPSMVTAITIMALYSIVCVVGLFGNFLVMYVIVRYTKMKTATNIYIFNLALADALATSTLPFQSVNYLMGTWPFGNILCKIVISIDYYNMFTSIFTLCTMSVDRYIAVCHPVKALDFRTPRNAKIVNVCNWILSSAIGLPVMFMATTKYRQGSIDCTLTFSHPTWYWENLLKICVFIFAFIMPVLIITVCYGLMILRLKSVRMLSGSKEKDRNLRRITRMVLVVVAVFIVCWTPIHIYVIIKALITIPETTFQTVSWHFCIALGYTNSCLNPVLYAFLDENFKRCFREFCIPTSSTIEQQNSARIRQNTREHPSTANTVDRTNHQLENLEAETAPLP

SMILES: COc1ccc2c3c1O[C@H]1C(=O)CC[C@@]4(O)[C@@H](C2)N(C)CC[C@]314 [oxycodone]
- EC50: except for oxycodone, which had a trend of lower potency
